# Where “and” joins values, the source holds several entries; their conditions need not be identical. Equal values may be shown once.
# Experiments:
# Type in all cases: cell-based
# [1] = molecular target: 320 non-olfactory GPCRs (Homo sapiens, UniProt O95665); conditions: receptor NTSR2; replicate values, Fig_4g
# [2] = molecular target: 320 non-olfactory GPCRs (Homo sapiens, UniProt P21554)
# [3] = molecular target: T1, 320 non-olfactory GPCRs (Homo sapiens, UniProt P47900); conditions: receptor P2RY1; replicate values, Fig_4g
# T1 construct: expressed in transfected cells; host or cells: HTLA cells
# T1 sequence (P47900 whole entry): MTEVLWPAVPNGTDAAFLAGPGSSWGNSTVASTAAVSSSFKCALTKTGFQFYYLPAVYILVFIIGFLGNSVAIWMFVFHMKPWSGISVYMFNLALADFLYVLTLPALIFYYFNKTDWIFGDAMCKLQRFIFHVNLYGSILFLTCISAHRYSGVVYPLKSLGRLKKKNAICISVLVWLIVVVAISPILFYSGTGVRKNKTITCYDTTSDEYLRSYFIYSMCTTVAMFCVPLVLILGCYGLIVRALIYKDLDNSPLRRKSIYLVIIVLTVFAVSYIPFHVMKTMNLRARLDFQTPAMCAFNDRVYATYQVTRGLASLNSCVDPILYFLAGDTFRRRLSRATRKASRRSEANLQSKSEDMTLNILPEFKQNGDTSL
# [4] = molecular target: T2, 320 non-olfactory GPCRs (Homo sapiens, UniProt Q96AM1); conditions: receptor MRGPRF; replicate values, Fig_4g
# T2 construct: expressed in transfected cells; host or cells: HTLA cells
# T2 sequence (Q96AM1 whole entry): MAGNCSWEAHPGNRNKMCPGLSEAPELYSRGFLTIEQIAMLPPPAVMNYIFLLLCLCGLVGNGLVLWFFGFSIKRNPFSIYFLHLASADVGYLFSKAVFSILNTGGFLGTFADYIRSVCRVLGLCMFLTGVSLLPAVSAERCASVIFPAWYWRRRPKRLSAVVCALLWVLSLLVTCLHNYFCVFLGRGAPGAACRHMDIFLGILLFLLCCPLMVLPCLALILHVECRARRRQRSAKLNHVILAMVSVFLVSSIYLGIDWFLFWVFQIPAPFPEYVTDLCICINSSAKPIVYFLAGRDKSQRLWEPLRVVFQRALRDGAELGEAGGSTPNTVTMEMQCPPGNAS
# 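Throughout, for Fold of Basal: compound tested at 1 µM final concentration.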
# 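Throughout, for GPCRome agonism screen response: fold over basal response of each receptor without drug.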
# 320 non-olfactory GPCRs (Homo sapiens, UniProt O95665), sequence (O95665 whole entry): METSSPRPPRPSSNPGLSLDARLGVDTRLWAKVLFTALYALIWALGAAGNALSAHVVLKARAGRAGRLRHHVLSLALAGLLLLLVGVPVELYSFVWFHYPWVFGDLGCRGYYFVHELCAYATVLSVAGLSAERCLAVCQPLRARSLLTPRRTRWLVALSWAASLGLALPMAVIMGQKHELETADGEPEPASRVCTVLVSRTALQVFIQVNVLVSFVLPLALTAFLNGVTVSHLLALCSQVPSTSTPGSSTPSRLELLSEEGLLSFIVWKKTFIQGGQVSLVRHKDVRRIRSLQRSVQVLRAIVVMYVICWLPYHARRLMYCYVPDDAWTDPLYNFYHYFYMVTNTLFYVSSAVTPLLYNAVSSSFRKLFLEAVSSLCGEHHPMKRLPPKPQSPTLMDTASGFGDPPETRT
# 320 non-olfactory GPCRs (Homo sapiens, UniProt P21554), sequence (P21554 whole entry): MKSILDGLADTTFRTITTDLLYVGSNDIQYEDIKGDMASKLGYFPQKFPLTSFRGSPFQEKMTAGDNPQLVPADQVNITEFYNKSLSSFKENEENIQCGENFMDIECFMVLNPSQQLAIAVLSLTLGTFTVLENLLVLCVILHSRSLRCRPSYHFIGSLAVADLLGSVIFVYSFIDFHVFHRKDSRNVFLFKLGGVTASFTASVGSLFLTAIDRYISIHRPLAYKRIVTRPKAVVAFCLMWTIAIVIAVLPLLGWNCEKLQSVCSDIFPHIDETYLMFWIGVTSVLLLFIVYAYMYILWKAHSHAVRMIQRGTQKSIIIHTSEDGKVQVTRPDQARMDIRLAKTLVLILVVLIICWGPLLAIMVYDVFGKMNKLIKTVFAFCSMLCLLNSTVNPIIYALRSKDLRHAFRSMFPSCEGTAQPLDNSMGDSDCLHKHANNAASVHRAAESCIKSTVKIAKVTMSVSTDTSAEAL
structure (smiles),measurement,setting,value
CCOc1cccc2cc(C(C)NCC3(O)CCCCC3)oc12 (stereo not shown) [O4LE6],GPCRome agonism screen response,[1],0.5368 and 0.5673 and 0.48 and 0.67
same,Fold of Basal,[2],1.089 and 1.197 and 0.9218 and 0.8315
same,GPCRome agonism screen response,[3],1.006 and 0.5483 and 1.2859 and 1.3533
same,GPCRome agonism screen response,[4],0.9496 and 0.9687 and 0.9252 and 0.5763

# — article PMC7044277 (Nature Communications, 2020)
